US20240316042A1 (AbbVie Inc., priority 2023, published 2024)
Values after ≈ are worked out from the molar mass of the structure shown. Where two headings read alike, the source gives them in different places.

Experiments:
[1] = system: pediatric patients with pcJIA; experiment: Phase 1 open-label study in pediatric pcJIA patients: efficacy (JIA ACR, JADAS-27, C-HAQ);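 further: values come from an interim analysis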
Method: Based on these parameters, the following composite efficacy endpoints were evaluated: • JIA ACR pediatric 30/50/70/90/100 responses • Change from Baseline in JADAS10/27/71 responses, as well as JADAS-based criteria for low disease activity and remission (if deemed useful and appropriate).
This was an interim analysis.
(§1) This interim analysis includes all available pharmacokinetic and safety data and efficacy data collected through Week 48, excluding patients enrolled in the long-term safety cohort.

[2] = Population pharmacokinetic analyses of upadacitinib exposure in adults / adult RA patients; conditions: for median average plasma exposure over a dosing interval: adult RA patients; for AUC0-24 at steady state, model-estimated: adults
Method: In Part 1, the dose was administered according to three body weight categories.
The doses selected for this study account for the difference in oral bioavailability between the extended-release tablet formulation and the oral solution. […] Doses were adjusted during the study for any of the body weight categories after review of results from the subjects who completed Part 1.

[3] = system: pediatric patients with pcJIA; experiment: Phase 1 open-label study in pediatric pcJIA patients: safety (adverse events)
Method: (§2) Part 1 was a multiple-dose, open-label, multiple-cohort study. Two sequential multiple-ascending dose levels (Low Dose and High Dose levels) were evaluated in the 12 to <18 years age group (Group 1), and one dose level (Low Dose) was evaluated in the two younger age groups (Group 2: 6 to <12 years, and Group 3: 2 to <6 years). Low Dose and High Dose cohorts in age group 1 enrolled 9 subjects each.
(§3) The study enrolled at least 10 subjects below 30 kg. Recruitment of subjects was conducted through a staggered approach based on age. […] Part 3 was an additional safety cohort. […] Part 3 was open to age groups in which Part I enrollment was completed. […] Doses were adjusted during the study for any of the body weight categories after review of results from the subjects who completed Study Part 1.
This was an interim analysis.
as §1

[4] = system: pediatric subjects with severe atopic dermatitis; experiment: Phase 1 open-label study in pediatric subjects with severe atopic dermatitis: efficacy (vIGA-AD, EASI); assay type: in vivo, human; conditions: Week 12 (as observed)
Method: (§4) This was an open-label, multiple-dose study. AD patients (N=35) were enrolled into four cohorts (Cohort 1, 6 to <12 years with low dose; Cohort 2, 6 to <12 years with high dose; Cohort 3, 2 to <6 years with low dose; Cohort 4, 2 to <6 years with high dose). […] PK was evaluated on Day 7 post first dose. Safety was evaluated throughout the study. Exploratory efficacy parameters were collected at specified timepoints.
During Part 2 of the study, concomitant topical medications for AD were allowed during the study per investigator discretion.
No formal statistical comparisons were planned.

[5] = Phase 1 open-label study in pediatric subjects with severe atopic dermatitis: pharmacokinetics on Day 7; assay type: in vivo, human; conditions: for half-life / Cmax: human, plasma, oral; for half-life: read-out: t1/2, harmonic mean (pseudo standard deviation) (converted)
Method: as §4
(§5) Part 1 was a multiple-dose, open-label, multiple-cohort study that consisted of two sequential multiple-ascending dose groups (Low Dose and High Dose levels) in the two age groups. (Group 1: 6 to <12 years and Group 2: 2 to <6 years).
There was one additional subject who was enrolled in Cohort 3 but withdrew informed consent before PK assessment. This subject was therefore not included in PK analyses.

[6] = Solubility of upadacitinib in different aqueous media at 37° C.; assay type: physicochemical; conditions: 50 mM carbonate buffer, pH 9.11
From the text: For pediatric use, an oral solution was developed to improve acceptability (palatability and swallowability), stability, and manufacturability. […] Thus, low pH buffers such as citrate, phosphate, tartrate, and formate are suitable to prepare the oral solution. […] Citrate buffer was selected because it has favorable pKa (˜3.1), which is close to the final pH of the oral solution.

[7] = Phase 1 open-label study in pediatric pcJIA patients: pharmacokinetics at steady state (Day 7); assay type: in vivo, human; conditions: for AUC / half-life: human, plasma, oral; for AUC / half-life / AUC0-24, geometric mean / CLss/F, geometric mean / CLss/F_adjusted (adjusted for bioavailability), geometric mean: Day 7; for AUC: read-out: AUCtau, geometric mean; for half-life: read-out: Functional t1/2, harmonic mean (converted)
Method: as §2, §3
In Part 1, the dose was administered according to three body weight categories. Subjects were categorized based on age group, and the dose administered for seven consecutive days will be based on three different body weight categories per dose level shown in Table 2.
Patients (N=51) diagnosed with pcJIA were enrolled into one of four groups in an open-label, multiple-dose study (Group 1, 12 to <18 years, low dose; Group 2, 12 to <18 years, high dose; Group 3, 6 to <12 years, low dose; Group 4, 2 to <6 years, low dose). […] Pharmacokinetic assessment was performed at steady state on Study Day 7, after which all patients might continue the study with low dose.

[8] = system: pediatric subjects with severe atopic dermatitis; experiment: Phase 1 open-label study in pediatric subjects with severe atopic dermatitis: safety
Method: as §4, §5

[9] = Enrollment on or after protocol v4.0, N 7
[10] = Enrollment up to protocol v3.0, N 20
[11] = AD Cohort 1: 6 to <12 years, Low Dose, IR Solution, Day 7
[12] = AD Cohort 2: 6 to <12 years, High Dose, ER Tablet, Day 7
[13] = AD Cohort 2: 6 to <12 years, High Dose, IR Solution, Day 7
[14] = AD Cohort 3: 2 to <6 years, Low Dose, IR Solution, Day 7
[15] = AD Cohort 4: 2 to <6 years, High Dose, IR Solution, Day 7
[16] = pcJIA Group 3: 6 to <12 years, low dose, BID solution
[17] = pcJIA Group 4: 2 to <6 years, low dose, BID solution
[18] = pcJIA Group 1: 12 to <18 years, low dose, QD tablet
[19] = pcJIA Group 2: 12 to <18 years, high dose, QD tablet
[20] = pcJIA Group 3: 6 to <12 years, low dose, QD tablet
[21] = pcJIA Group 3: 6 to <12 years, low dose, tablet and solution combined

Structure (SMILES): CC[C@@H]1CN(C(=O)NCC(F)(F)F)C[C@@H]1c1cnc2cnc3[nH]ccc3n12 [upadacitinib, (3S,4R)-3-ethyl-4-(3H-imidazo[1,2-a]pyrrolo[2,3-e]pyrazin-8-yl)-N-(2,2,2-trifluoroethyl)pyrrolidine-1-carboxamide]
- C-HAQ, Change from Baseline Mean ([…]% CI) ([1]; Week 12, Overall): −0.45 (−0.63, −0.27)
- C-HAQ, Change from Baseline Median (Min, Max) ([1]; Week 12, Overall): −0.38 (−1.9, 1.1)
- ESR, Change from Baseline Median (Min, Max) ([1]; Week 12, Overall): −4.0 (−41, 26) ^
- Patient/Parent Global Assessment of Overall Well Being (VAS), Change from Baseline Median (Min, Max) ([1]; Week 12, Overall): −26.0 (−81, 37) ^
- Physician's Global Assessment of Disease Activity (VAS), Change from Baseline Median (Min, Max) ([1]; Week 12, Overall): −49.0 (−100, 9) ^
- Total Number of Active Joints, Change from Baseline Median (Min, Max) ([1]; Week 12, Overall): −8.0 (−25, 0) ^
- C-HAQ, Change from Baseline Mean ([…]% CI) ([1]; Week 12, age 2 to <6 years): −0.31 (−0.77, 0.15)
- C-HAQ, Change from Baseline Median (Min, Max) ([1]; Week 12, age 2 to <6 years): −0.38 (−1.3, 1.1)
- ESR, Change from Baseline Median (Min, Max) ([1]; Week 12, age 2 to <6 years): −7.0 (−39, 2) ^
- Patient/Parent Global Assessment of Overall Well Being (VAS), Change from Baseline Median (Min, Max) ([1]; Week 12, age 2 to <6 years): −38.0 (−81, 37) ^
- Physician's Global Assessment of Disease Activity (VAS), Change from Baseline Median (Min, Max) ([1]; Week 12, age 2 to <6 years): −49.0 (−72, −25)
- Total Number of Active Joints, Change from Baseline Median (Min, Max) ([1]; Week 12, age 2 to <6 years): −6.0 (−12, −3)
- C-HAQ, Change from Baseline Mean ([…]% CI) ([1]; Week 12, age 6 to <12 years): −0.64 (−0.95, −0.34)
- C-HAQ, Change from Baseline Median (Min, Max) ([1]; Week 12, age 6 to <12 years): −0.38 (−1.9, 1.1)
- ESR, Change from Baseline Median (Min, Max) ([1]; Week 12, age 6 to <12 years): −4.0 (−41, 7) ^
- Patient/Parent Global Assessment of Overall Well Being (VAS), Change from Baseline Median (Min, Max) ([1]; Week 12, age 6 to <12 years): −29.0 (−61, 9) ^
- Physician's Global Assessment of Disease Activity (VAS), Change from Baseline Median (Min, Max) ([1]; Week 12, age 6 to <12 years): −55.0 (−100, −28)
- Total Number of Active Joints, Change from Baseline Median (Min, Max) ([1]; Week 12, age 6 to <12 years): −8.0 (−24, −4)
- C-HAQ, Change from Baseline Mean ([…]% CI) ([1]; Week 12, age 12 to <18 years): −0.33 (−0.58, −0.09)
- C-HAQ, Change from Baseline Median (Min, Max) ([1]; Week 12, age 12 to <18 years): −0.31 (−1.1, 0.5)
- ESR, Change from Baseline Median (Min, Max) ([1]; Week 12, age 12 to <18 years): −2.5 (−17, 26) ^
- Patient/Parent Global Assessment of Overall Well Being (VAS), Change from Baseline Median (Min, Max) ([1]; Week 12, age 12 to <18 years): −23.0 (−45, 8) ^
- Physician's Global Assessment of Disease Activity (VAS), Change from Baseline Median (Min, Max) ([1]; Week 12, age 12 to <18 years): −41.0 (−94, 9) ^
- Total Number of Active Joints, Change from Baseline Median (Min, Max) ([1]; Week 12, age 12 to <18 years): −9.0 (−25, 0) ^
- median average plasma exposure over a dosing interval ([2]; 15 mg QD extended-release formulation): 15.1 ng/mL
- median average plasma exposure over a dosing interval ([2]; 30 mg QD extended-release formulation): 30.0 ng/mL
- Median AUC0-24 at steady state (5th, 95th percentile) ([2]; adult patients with RA, phase 3 trials, 15 mg ER tablet daily): 358 (234, 701) ng·h/mL
- AUC0-24 at steady state, model-estimated ([2]; multiple 15 mg QD doses): 362 ng·h/mL
- AUC0-24 at steady state, model-estimated ([2]; multiple 30 mg QD doses): 720 ng·h/mL
- patients reporting serious AEs or AEs leading to treatment discontinuation ([3]; pcJIA part 1, through 7 days): no patients
- patients reporting adverse events (AEs) ([3]; pcJIA part 1, through 7 days, 8 out of 51 patients): 15.7%
- patients reporting AEs ([3]; pcJIA part 2 and part 3, 52 out of 57 patients): 91.2%
- AE of special interest: neutropenia ([3]; pcJIA part 2 and part 3, n=2/57): 3.5%
- AE of special interest: hepatic disorder ([3]; pcJIA part 2 and part 3, n=3/57): 5.3%
- AE of special interest: elevated creatine phosphokinase ([3]; pcJIA part 2 and part 3, n=6/57): 10.5%
- patients reporting AEs leading to treatment discontinuation ([3]; pcJIA, 12 to <18 years of age group, 2 of 19): 10.5%
- patients reporting serious AEs ([3]; pcJIA, 12 to <18 years of age group, six out of 19): 31.6%
- uveitis events ([3]; pcJIA, during the study): no uveitis events occurred
- deaths ([3]; pcJIA, interim analysis): No deaths occurred
- overall safety and tolerability ([3]; pediatric patients with pcJIA): safe and well tolerated
- EASI 75, Responder ([4]; Age 2 to <6 years, N 12): 9 (75.0) n (%)
- vIGA-AD of 0 or 1 with at least two grades of reduction from baseline, Responder ([4]; Age 2 to <6 years, N 12): 3 (25.0) n (%)
- EASI 75, Responder ([4]; Age 6 to <12 years, N 15): 10 (66.7) n (%)
- vIGA-AD of 0 or 1 with at least two grades of reduction from baseline, Responder ([4]; Age 6 to <12 years, N 15): 6 (40.0) n (%)
- EASI 75, Responder [4, 9]: 7 (100) n (%)
- vIGA-AD of 0 or 1 with at least two grades of reduction from baseline, Responder [4, 9]: 3 (42.9) n (%)
- EASI 75, Responder [4, 10]: 12 (60.0) n (%)
- vIGA-AD of 0 or 1 with at least two grades of reduction from baseline, Responder [4, 10]: 6 (30.0) n (%)
- EASI 75, Responder ([4]; Overall, N 27): 19 (70.4) n (%)
- vIGA-AD of 0 or 1 with at least two grades of reduction from baseline, Responder ([4]; Overall, N 27): 9 (33.3) n (%)
- CLss/F, geometric mean (mean, % CV) ([5]; AD Cohort 1: 6 to <12 years, Low Dose, ER Tablet, Day 7): 31.5 (34.2, 48) L/h
- CLss/F, geometric mean (mean, % CV) [5, 11]: 19.3 (20.2, 31) L/h
- CLss/F, geometric mean (mean, % CV) [5, 12]: 39.1 (42.3, 37) L/h
- CLss/F, geometric mean (mean, % CV) [5, 13]: 23.0 (23.6, 27) L/h
- CLss/F, geometric mean (mean, % CV) [5, 14]: 15.6 (18.6, 52) L/h
- CLss/F, geometric mean (mean, % CV) [5, 15]: 20.7 (23.6, 66) L/h
- half-life [5, 11]: 2.35 h
- half-life [5, 12]: 4.93 h
- half-life [5, 13]: 1.68 h
- Cmax ([5]; AD Cohort 2: 6 to <12 years, high dose, Day 7 (Example 4), read-out: Geometric mean Cmax at steady-state): 95.5 ng/mL
- half-life [5, 14]: 1.67 h
- Cmax ([5]; AD Cohort 4: 2 to <6 years, High Dose, IR Solution, Day 7, read-out: Cmax, geometric mean (mean, % CV)): 96.9 ng/mL
- half-life [5, 15]: 2.25 h
- Cmax ([5]; AD Cohort 4: 2 to <6 years, high dose, Day 7 (Example 4), read-out: Geometric mean Cmax at steady-state): 101 ng/mL
- solubility [6]: 199 ± 6 µg/mL (≈ 523 µM)
- AUC [7, 16]: 198 ng·h/mL
- half-life [7, 16]: 2.39 h
- AUC [7, 17]: 184 ng·h/mL
- half-life [7, 17]: 2.33 h
- Median AUC0-24 ([7]; pcJIA Group 1 (12 to <18 years), low-dose level): 278 ng·h/mL
- AUC0-24, geometric mean [7, 18]: 269 ng·h/mL
- CLss/F, geometric mean [7, 18]: 55.7 L/h
- CLss/F_adjusted (adjusted for bioavailability), geometric mean [7, 18]: 38.1 L/h
- Median AUC0-24 ([7]; pcJIA Group 2 (12 to <18 years), high-dose level): 547 ng·h/mL
- AUC0-24, geometric mean [7, 19]: 553 ng·h/mL
- CLss/F, geometric mean [7, 19]: 46.5 L/h
- CLss/F_adjusted (adjusted for bioavailability), geometric mean [7, 19]: 31.8 L/h
- CLss/F_adjusted (adjusted for bioavailability), geometric mean [7, 16]: 19.7 L/h
- AUC0-24, geometric mean [7, 20]: 318 ng·h/mL
- CLss/F, geometric mean [7, 20]: 41.6 L/h
- CLss/F_adjusted (adjusted for bioavailability), geometric mean [7, 20]: 28.5 L/h
- AUC0-24, geometric mean [7, 21]: 346 ng·h/mL
- CLss/F_adjusted (adjusted for bioavailability), geometric mean [7, 21]: 24.7 L/h
- Median AUC0-24 ([7]; pcJIA Group 4 (2 to <6 years), low-dose level): 360 ng·h/mL
- CLss/F_adjusted (adjusted for bioavailability), geometric mean [7, 17]: 15.0 L/h
- apparent oral clearance in relation to bodyweight ([7]; pcJIA patients): increased in pcJIA patients with increasing bodyweight
- discontinuation of upadacitinib due to adverse event ([8]; AD Part 2, n=3): 9.7%
- most common AEs ([8]; children with severe AD): COVID infection, headache, and abdominal discomfort
- new safety risks compared to the known safety profile ([8]; children with severe AD): No new safety risks were identified
- overall safety and tolerability ([8]; children with severe AD): generally safe and well tolerated
